The supplement of paper PMC10307832

Legend:
Assay in all cases: relative viability (nuclei count vs DMSO), 5 days (fraction); higher = more cells survive
[1] = compound: CC(O)(CS(=O)(=O)c1ccc(F)cc1)C(=O)Nc1ccc(C#N)c(C(F)(F)F)c1 [Bicalutamide] + Cc1nc(Nc2ncc(C(=O)Nc3c(C)cccc3Cl)s2)cc(N2CCN(CCO)CC2)n1 [Dasatinib] (partner 0.075 µM)
How it was run: (§1)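 For relative viability, nuclei counts in treated wells were divided by those in vehicle wells. Lung cancer cell lines had been pin-tool dosed in 1536-well plates the day after seeding and cultured for 5 days, then fixed and stained in one step (final 0.05% Triton X-100, 1% formaldehyde, 1 ug/ml Hoechst) and imaged at 4×. Doses were one drug alone or a fixed anchor-drug dose plus five library-drug doses (not always all listed) in √10 steps, and values are duplicate-plate medians.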

[2] = compound: C(C(=O)C(=O)O)Br [Bromopyruvate] + CS(=O)(=O)CCNCc1ccc(-c2ccc3ncnc(Nc4ccc(OCc5cccc(F)c5)c(Cl)c4)c3c2)o1 [Lapatinib] (partner 2 µM)
How it was run: as §1

[3] = compound: C(C(=O)C(=O)O)Br [Bromopyruvate] + CC1(C)CCC(c2ccc(Cl)cc2)=C(CN2CCN(c3ccc(C(=O)NS(=O)(=O)c4ccc(N[C@H](CCN5CCOCC5)CSc5ccccc5)c(S(=O)(=O)C(F)(F)F)c4)cc3)CC2)C1 [Navitoclax] (partner 0.5 µM)
How it was run: as §1

[4] = compound: CC(O)(CS(=O)(=O)c1ccc(F)cc1)C(=O)Nc1ccc(C#N)c(C(F)(F)F)c1 [Bicalutamide] + CCNC(=O)c1noc(-c2cc(C(C)C)c(O)cc2O)c1-c1ccc(CN2CCOCC2)cc1 [Luminespib] (partner 0.01 µM)
How it was run: as §1

Cell Line	relative viability ([1]; first compound 0.08 µM)	relative viability ([1]; first compound 0.253 µM)	relative viability ([1]; first compound 0.8 µM)	relative viability ([1]; first compound 2.53 µM)	relative viability ([2]; first compound 1 µM)	relative viability ([2]; first compound 3.162 µM)	relative viability ([2]; first compound 10 µM)	relative viability ([2]; first compound 31.62 µM)	relative viability ([2]; first compound 100 µM)	relative viability ([3]; first compound 1 µM)	relative viability ([3]; first compound 3.162 µM)	relative viability ([3]; first compound 10 µM)	relative viability ([3]; first compound 31.62 µM)	relative viability ([3]; first compound 100 µM)	relative viability ([4]; first compound 0.08 µM)	relative viability ([4]; first compound 0.253 µM)	relative viability ([4]; first compound 0.8 µM)	relative viability ([4]; first compound 2.53 µM)
HCC-827	0.328	0.19	0.315	0.293	0.205	0.191	0.167	0.193	0.214	1.02	1	0.99	1.12	0.996	0.704	0.676	1.35	0.668
LK-2	0.283	0.224	0.261	0.293	0.936	0.88	0.871	0.967	0.826	0.9	0.85	0.818	0.888	0.772	0.161	0.167	0.175	0.21
BEN	0.355	0.316	0.393	0.38	0.617	0.649	0.744	0.777	0.649	0.0705	0.0702	0.072	0.0664	0.0566	0.416	0.344	0.541	0.39
NCI-H2347	0.318	0.307	0.299	0.308	0.897	1.02	1.18	0.782	1.15	0.714	0.742	1.13	0.553	0.778	0.357	0.399	0.263	0.673
NCI-H1395	0.406	0.404	0.414	0.353	1.07	0.928	1.07	0.919	0.976	1.24	1.24	1.28	1.17	1.21	0.726	0.774	0.854	0.621
201T	0.575	0.566	0.581	0.57	1.03	1.06	1.03	0.942	1.02	1.28	1.15	1.18	1.2	1.19	1.06	1.03	1.02	1.1
